The assay concerns the target Babesia microti lactate dehydrogenase (BmLDH) (Babesia microti, UniProt I7J7V6). The experiment in a line: NADH formation at […] nm, […] NAD+ and […] lactate, non-linear regression. Type of assay: biochemical.

By IC50 is commonly meant the concentration that gives 50% inhibition. Higher therefore signals a need for much substance.

Structures are written as SMILES.

Sequence of Babesia microti lactate dehydrogenase (BmLDH) (I7J7V6 1-332): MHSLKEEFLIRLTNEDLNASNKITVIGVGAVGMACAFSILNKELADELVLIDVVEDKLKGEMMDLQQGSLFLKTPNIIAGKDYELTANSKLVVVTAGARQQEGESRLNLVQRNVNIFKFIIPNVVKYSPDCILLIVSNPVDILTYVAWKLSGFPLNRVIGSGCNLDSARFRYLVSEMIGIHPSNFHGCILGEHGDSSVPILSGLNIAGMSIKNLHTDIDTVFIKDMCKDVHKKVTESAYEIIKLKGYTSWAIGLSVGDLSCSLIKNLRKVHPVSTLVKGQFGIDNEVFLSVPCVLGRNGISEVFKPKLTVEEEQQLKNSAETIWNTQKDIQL

`Cc1cc2c(C(C)C)c(O)c(O)c(C=O)c2c(O)c1-c1c(C)cc2c(C(C)C)c(O)c(O)c(C=O)c2c1O` [gossypol] returned an IC50 of 345 ± 1.11 nM.

The values above are taken from publication PMC4125376 (Drug Target Insights, 2014).
